Values of other authors, collected in patent US20110123622A1, “OPHTHALMIC FORMULATION AND METHOD OF MANUFACTURE THEREOF” (Inotek Pharmaceuticals Corporation, priority 2009, published 2011).

Tested on: human exhibiting elevated intraocular pressure as a result of OHT or POAG

In the case of `O=[N+]([O-])OC[C@H]1O[C@@H](n2cnc3c(NC4CCCC4)ncnc32)[C@H](O)[C@@H]1O` [Compound A, ((2R,3S,4R,5R)-5-(6-(cyclopentylamino)-9H-purin-9-yl)-3,4-dihydroxytetrahydrofuran-2-yl)methyl nitrate], the “reduction in IOP, comparison of dose groups” value (350 mcg and 700 mcg treatment groups, HPβCD formulation) is listed as “greatest reduction in IOP” and the “IOP upon a single application” value (formulated 1:20 wt/wt in HPβCD, 2.5 to 700 micrograms per eye) is listed as “statistically significant dose-related decrement in IOP”.
